Laboratory results taken from US20250345332A1, “APROCITENTAN FOR THE TREATMENT OF HYPERTENSION” (IDORSIA PHARMACEUTICALS LTD, priority 2022, published 2025).
Entries after “also recorded” stand apart in the source; their conditions may differ. Where two headings read alike, the source gives them in different places.

Tests used:
[1] = tested on: patients with resistant hypertension; assay: PRECISION phase 3 trial: safety assessments; format: in vivo, human; settings: for tolerability: 12.5 mg and 25 mg, up to 48 weeks; for treatment-emergent adverse events (TEAEs), patients: 4-week double-blind period, placebo 19.4%; for edema/fluid retention, patients: 4-week part 1, placebo 2.1%; for discontinuation from study treatment due to an adverse event: first 4 weeks double-blind, placebo 0.8%; for estimated plasma volume increase: placebo 0.51%
Protocol: (§1) A single, randomized study with three sequential treatment parts was designed. The study design addressed both the 4-week placebo-controlled efficacy of 12.5 and 25 mg aprocitentan (Part 1) and the durability of its effects in long-term active treatment with 25 mg aprocitentan for a further 32 weeks (Part 2) followed by a 12-week placebo-controlled withdrawal period with patients re-randomized to 25 mg or placebo (Part 3) (see for example Danaietash P et al; Identifying and treating resistant hypertension in PRECISION—a randomized long-term clinical trial with Aprocitentan. J Clin Hypertension 2022 (in press). Patients with uncontrolled BP (measured as unattended automated office BP) despite the use of three or more antihypertensive medications for at least 1 year were screened. They were switched to a single-tablet triple fixed combination antihypertensive therapy for at least 4 weeks before entering a single-blind placebo run-in period. The 4-week placebo run-in period further excluded placebo responders. The randomization period consisted of 3 sequential parts: • 1) a 4-week double-blind part with aprocitentan 12.5 mg, 25 mg, or placebo (1:1:1 ratio); • 2) a 32-week single-blind part with aprocitentan 25 mg; and • 3) a 12-week randomized withdrawal part with aprocitentan 25 mg or placebo (1:1 ratio).
(§2) • Part 1: Double-blind, randomized parallel-group and placebo-controlled and lasts for 4 weeks. Subjects received (1:1:1 ratio), 25 or 12.5 mg aprocitentan, or placebo. • Part 2: Single-blind and single-arm, lasts for 32 weeks. All subjects received aprocitentan 25 mg. • Part 3: Double-blind withdrawal. All subjects completing part 2 and entering part 3 are re-randomized (1:1 ratio) to either aprocitentan 25 mg or placebo.
Safety assessments include (treatment emergent) adverse events (TEAEs) including TEAEs leading to premature discontinuation of study treatment; adverse events of special interest (AESIs): hepatic disorders, anemia (or hemodilution), edema/fluid retention, and decompensation/aggravation of heart failure; treatment-emergent major adverse cardiovascular events (MACEs)/MACE-plus defined as cardiovascular death, non-fatal myocardial infarction (MI), or non-fatal stroke, or hear filure leading to hospitalization confirmed by the Central Adjudication Committee (CAC); as well as vital signs, body weight, clinical laboratory assessments, and 12-lead electrocardiograms.

[2] = tested on: rat models of hypertension; settings: cited from earlier work
[3] = tested on: subjects having essential hypertension; settings: cited from earlier work
[4] = tested on: patients with resistant hypertension; assay: PRECISION phase 3 trial: urine albumin-creatinine ratio (UACR); format: in vivo, human
Protocol: as §1, §2
In a population with difficult-to control hypertension (mean age of 62 years, obesity [69.3% of subjects], >50% with diabetes mellitus, 22% with CKD stage 3-4), evaluation of UACR is important. […] The geometric mean UACR at baseline was 26.6 mg/g in the overall population. At Week 4, placebo-corrected reductions in UACR of 30% and 34% with aprocitentan 12.5 mg and 25 mg were noted, respectively.

[5] = tested on: patients with resistant hypertension; assay: PRECISION phase 3 trial: trough unattended automated office blood pressure (uAOBP); format: in vivo, human; settings: for office SBP at 4 weeks, difference versus placebo (SE): part 1 (primary endpoint); for least square mean (SE) change in office SBP at 4 weeks: part 1, on standardized background therapy; for office DBP decrease compared with placebo: week 4, part 1
Protocol: as §1
The standardized byckground treatment (SBT) is a single-tablet triple fixed combination of a CCB (amlodipine), an ARB (valsartan), and a diuretic (hydrochlorothiazide); two dose strengths are available: 5/160/25 mg and 10/160/25 mg, respectively. The maximum tolerated dose strength is selected at the investigator's discretion during the treatment period of the study and must be kept stable for at least 1 week prior to randomization continuing through the end of the DB part and again during the DB-WD part. Patients who are treated with a β-blocker at screening will continue their treatment throughout the study.
Study treatment and SBT are to be taken every morning except on the morning of study visit days, where treatment is administered after the completion of the visit assessments and the measurement of BP.
Trough uAOBP is measured at each visit with the same automated oscillometric sphygmomanometer (Microlife® WatchBP Office), which records 5 sitting BP readings (one per minute, first value excluded from the average), with the patient resting undisturbed, alone (unattended) in a quiet place for 5 minutes.
as §2
The primary efficacy endpoint is the change from baseline to Week 4 of DB treatment in mean trough SiSBP measured as uAOBP, where baseline is defined as the last available measurement before the start of DB treatment. […]
Other secondary efficacy endpoints include • changes from baseline to Week 4 and from DB-WD baseline to Week 40 in mean trough sitting diastolic blood pressure (SiDBP) measured as uAOBP. • and changes in systolic/diastolic BP measured by ABPM, including changes from baseline to Week 4 of DB treatment in 24-h mean SBP and DBP, changes from baseline to Week 4 in daytime and night-time mean SBP and DBP, changes from DB-WD baseline (Week 36) to Week 40 in 24-h mean SBP and DBP, and changes from DB-WD baseline (Week 36) to Week 40 in daytime and night-time mean SBP and DBP.

[6] = preliminary data, subjects with SGLT-2 inhibitor plus standardized antihypertensive background therapy, small sample size
[7] = subjects with CKD stage 3-4, baseline to Week 4

## NS(=O)(=O)Nc1ncnc(OCCOc2ncc(Br)cn2)c1-c1ccc(Br)cc1 [aprocitentan, {5-(4-bromo-phenyl)-6-[2-(5-bromo-pyrimidin-2-yloxy)-ethoxy]-pyrimidin-4-yl}-sulfamide]
[1]
  tolerability: generally well tolerated
[1]; listed as Aprocitentan
  tolerability: generally well tolerated
[1]; aprocitentan 12.5 mg
  treatment-emergent adverse events (TEAEs), patients: 27.6%
  edema/fluid retention, patients: 9.1%
  discontinuation from study treatment due to an adverse event: 2.5%
[1]; aprocitentan 12.5 mg, part 1
  estimated plasma volume increase: 10.5%
[1]; aprocitentan 12.5 mg, part 1, placebo −0.4
  haemoglobin concentration change: -8.0 g/L
[1]; aprocitentan 25 mg
  treatment-emergent adverse events (TEAEs), patients: 36.7%
  edema/fluid retention, patients: 18.4%
  discontinuation from study treatment due to an adverse event: 2.0%
[1]; aprocitentan 25 mg, 12-week part 3, placebo 1.3%
  oedema or fluid retention, patients: 2.6%
[1]; aprocitentan 25 mg, 32-week part 2
  oedema or fluid retention, patients: 18.2%
[1]; aprocitentan 25 mg, part 1 (two of 245)
  admission to hospital for heart failure, patients: 0.8%
[1]; aprocitentan 25 mg, part 1, of 245 patients
  patients who discontinued due to oedema or fluid retention: one
[1]; aprocitentan 25 mg, part 1
  estimated plasma volume increase: 11.2%
[1]; aprocitentan 25 mg, part 2 (six of 704)
  admission to hospital for heart failure, patients: 0.9%
[1]; aprocitentan 25 mg, part 2, of 704 patients
  patients who discontinued due to oedema or fluid retention: five
[1]; aprocitentan 25 mg, part 3 (two of 310), placebo 0.3%
  admission to hospital for heart failure, patients: 0.6%
[1]; aprocitentan 25 mg, part 3, of 310 patients
  patients who discontinued due to oedema or fluid retention: one
[1]; aprocitentan 25 mg, parts 1-3, <1%
  patients who discontinued treatment due to edema/fluid retention: seven
[1]; both aprocitentan doses, part 1, decrease with placebo
  bodyweight: moderate increase
[1]; both on aprocitentan 25 mg, <1%
  serious edema/fluid retention adverse events: Two
[1]; entire study duration
  edema/fluid retention events mild to moderate in intensity: > 95%
  patients who developed edema/fluid retention at one time point: Approximately 30%
[1]; in vivo
  hepatotoxicity: No signs
[1]; part 1, stabilisation in part 2, reversal in part 3
  NT-proBNP and MR-proANP: Slight increases
[1]; part 1 versus placebo
  eGFR: decreased slightly
[1]; [6]
  decrease of hemoglobin value from baseline to week 36: smaller decrease
[2]; in certain models
  pharmacological effect in combination with ACE inhibitors such as enalapril: synergistic
[2]; rat, in vivo
  pharmacological effect in combination with angiotensin receptor blockers such as valsartan: synergistic
  pharmacological effect in combination with calcium channel blockers such as amlodipine: additive
[3]; across all four doses (5, 10, 25, 50 mg)
  tolerability: well tolerated
[3]; aprocitentan 5 mg group
  cases of increased liver enzymes above three times the upper limit of the normal range: one
[3]; aprocitentan 25 mg group
  cases of peripheral edema: two
[3]; aprocitentan 50 mg group
  cases of peripheral edema: two
[3]; aprocitentan 5 and (10) mg groups
  mean body weight change from baseline: remained unchanged
[3]; aprocitentan 25 and 50 mg groups
  mean body weight increase from baseline: 0.4 kg
[4]; aprocitentan 12.5 mg, subjects with CKD stage 3-4
  reduction in UACR: −26%
[4]; aprocitentan 12.5 mg, subjects with baseline microalbuminuria
  reduction in UACR: −43%
[4]; aprocitentan 25 mg, single-blind part 2
  UACR reduction during part 2: maintained; also recorded: sustained
[4]; aprocitentan 25 mg, subjects with CKD stage 3-4
  reduction in UACR: −45%
[4]; aprocitentan 25 mg, subjects with baseline microalbuminuria
  reduction in UACR: −45%
[4]; patients with chronic kidney disease stage 3-4
  antiproteinuric effect (UACR change): −46%
[4]; patients with eGFR of 60 mL/min per 1.73 m^2 or higher
  antiproteinuric effect (UACR change): −26%
[4]; [6]
  antiproteinuric effect: improved antiproteinuric effect
[5]; aprocitentan 12.5 mg
  office SBP at 4 weeks, difference versus placebo (SE): statistically significant and clinically meaningful reduction
  least square mean (SE) change in office SBP at 4 weeks: −15.3 (0.9) mm Hg
  office DBP decrease compared with placebo: −3.9 mm Hg
[5]; aprocitentan 25 mg, 32-week single-blind part 2, patients previously on aprocitentan
  office blood pressure reduction from baseline during part 2: maintained
[5]; aprocitentan 25 mg
  office SBP at 4 weeks, difference versus placebo (SE): statistically significant and clinically meaningful reduction
  least square mean (SE) change in office SBP at 4 weeks: −15.2 (0.9) mm Hg
  office DBP decrease compared with placebo: −4.5 mm Hg
[5]; part 3, after 4 weeks of withdrawal, aprocitentan 25 mg
  office DBP increase with placebo compared with aprocitentan: 5.2 mm Hg
[5]; [7]
  difference 25 mg versus 12.5 mg in LS mean reduction, primary endpoint SiSBP: up to −5.88 mmHg
  further decrease in SiSBP with 25 mg compared with 12.5 mg: 44%
